Reference: article PMC6278385, “Preclinical Pharmacokinetics of C118P, a Novel Prodrug of Microtubules Inhibitor and Its Metabolite C118 in Mice, Rats, and Dogs” (Molecules, 2018)
Like-named read-outs stand apart in the source and are kept apart here.

Columns and labels:
[1] = PK in rats after i.v. C118P; format: in vivo, SD rats; settings: plasma; for concentration at 30 s / AUC(0-inf) / half-life / clearance: both sexes, rat; for concentration at 30 s: read-out: C2min (C30s for Rat); for AUC(0-inf) / half-life / clearance: iv
Description: The SD rats were supplied by the medical animal experiment center of Chinese People’s Liberation Army Nanjing military region. Twenty-four rats (210–300 g) with half males and half females were divided randomly into four groups. C118P was dissolved in saline to achieve different concentrations for intravenous administration. After fasting overnight, the rats were administered with a single intravenous dose of 5, 10, 20, or 50 mg/kg C118P. Blood samples (approximately 200 μL) were collected in EDTA-coated tubes pre-dose (0), and 30s, 2, 5, 10, 20, 40 min, 1, 2, 4, 8, 12 and 24 h post dose. Plasma was prepared by centrifugation at 8000 rpm for 5 min, and the plasma samples were then prepared and determined by the method described above.
(§1) The area under the plasma-concentration-versus-time curve from 0 to infinite (AUC0-inf), the elimination half-life (t1/2), the systemic plasma clearance (CL) and the volume of distribution (V) were calculated by non-compartmental analysis with WinNonlin software v6.3 (Pharsight Corporation, St. Louis, MO 63144, USA) from the plasma concentration data of C118P and C118, respectively. The instantaneous concentrations after intravenous to rats (C30s) or dogs (C2min) were obtained directly from the observed data.

[2] = Metabolic stability in liver microsomes; format: in vitro ADME, mice
Description: The in vitro metabolic stability of C118P and C118 were estimated in mice, rat, dog, monkey, and human liver microsomes (Research Institute for Liver Diseases Co. Ltd (Shanghai, China)). The incubation mixture contains C118P or C118, NADP (1.0 mM), G-6-P (10 mM), PDH (2 units/mL), MgCl2 (10 mM), and liver microsomes (mice, rats, dogs, monkeys, or humans, 1.0 mg protein/mL) in phosphate buffer. A total of 200 μL of the mixture was removed and quenched with 600 μL acetonitrile in an ice bath at 0, 15, 30, 60, 120, and 240 min after the addition of NADPH.
CLint, in vitro (the in vitro intrinsic clearance, Equation (1)) was calculated from the t1/2 of C118 disappearance, where Cprotein is the protein concentration during the incubation, and t1/2 was determined by the slope (k) of the log-linear regression analysis of the concentration versus time profiles; thus, t1/2 = ln2/k. […] The in vivo hepatic clearance (CLH, Equation (3)) was then calculated by using CLint and hepatic blood flow, Q ([…] mL·min^−1·kg^−1 in rats, dogs, monkey, and humans, respectively), in the well-stirred liver model disregarding all binding. The hepatic extraction ratio was calculated as CLH divided by Q. CLint, in vitro = (0.693/t1/2) × (1/Cprotein)(1) CLint = CLint, in vitro × (mg protein/g liver weight) × (gliver weight/kg body weight)(2) CLH = (Q × CLint)/(Q + CLint)(3)

[3] = PK in tumor-bearing nude mice after i.v. C118P; format: in vivo, nude mice (BALB/cA) implanted with NCI-H460 tumor; settings: for concentration at 2 min: read-out: C2min
Description: The nude mice (BALB/cA) implanted with NCI-H460 tumor were provided by Shanghai Institute of Materia Medica. A total of 36 mice were divided into 9 groups with four animals in each group. After fasting overnight with free access to water, the mice were treated with 75 mg/kg C118P by i.v. The blood samples were collected at 2, 10, 20, 40 min, 1, 2, 4, 8, 12 h after treatment and the mice were anaesthetized and decapitated to obtain the blood and tumor tissue. Blood, brain, muscle, ovary, and lung from mice in the PK study were collected at 10 min, 1, 4, and 12 h. Tissues were cleaned by absorbent filter paper to remove the blood. Bloods were centrifuged at 10,000× g for 5 min. Each tissue (0.2 g) was homogenized with 2 mL water. The plasma samples and the homogenates were then processed and determined by the method described above. The concentration was determined by the calibration curve and the actual concentration was corrected by multiplying by 10 according to the dilution times.
as §1

[4] = Plasma protein binding by ultrafiltration; format: in vitro ADME, beagle dogs; settings: beagle, dog plasma, read-out: fu (fraction unbound);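 further: fu expressed in percent not as a fraction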
Description: Both C118P and C118 were stable in the plasma with EDTA as anticoagulant. The non-specific binding to the ultrafilter membrane was negligible. The extent of plasma protein binding was reported as a fraction unbound (fu, %) value which was calculated using the formula fu = PF/TC × 100%, where TC is test compound (C118P or C118) concentration in sample before ultrafiltration, and PF is the test compound concentration in the ultrafiltrate (Table 1).
Plasma protein binding of C118P and C118 were determined by ultrafiltration at four concentrations (C118P: 400, 4000, 40,000, and 400,000 ng/mL, C118: 20, 200, 2000, and 20,000 ng/mL) in pooled plasma from Sprague-Dawley rats, beagle dogs, and humans. Stock solutions of C118P and C118 dissolved in methanol were diluted with blank plasma to achieve the test concentrations (the methanol volume is less than 10% of the plasma). The plasma was incubated for 1 h in a water bath at 37 °C. The total concentration of C118P and C118 of spiked plasma (TC) was analyzed by previously described methods. Ultrafiltration was performed with activated high speed centrifugal tubes (Millipore, Burlington, MA, USA). Plasma samples (0.4 mL) were added to the upper layer of the high speed centrifugal tubes, and then centrifuged at 12,000 g for 10 min. The concentration of unbound C118P and C118 in filtrate (PF) was similarly determined by the previously described methods. The percentage of free fraction (fu) of C118P and C118 was calculated as follows: fu = (PF/TC) × 100%.

[5] = SD, rats, i.v. C118P 5 mg/kg, n = 6
[6] = SD, rats, i.v. C118P 20 mg/kg, n = 6
[7] = SD, rats, i.v. C118P 50 mg/kg, n = 6
[8] = Sprague-Dawley, rats, i.v. C118P 10 mg/kg, n = 6
[9] = nude mice, tumor, i.v. C118P 75 mg/kg, n = 4
[10] = SD, in vivo, rats, i.v. C118P 5 mg/kg, n = 6
[11] = SD, in vivo, rats, i.v. C118P 20 mg/kg, n = 6
[12] = SD, in vivo, rats, i.v. C118P 50 mg/kg, n = 6
[13] = Sprague-Dawley, in vivo, rats, i.v. C118P 10 mg/kg, n = 6

COc1cc(OC)cc(-c2nc[nH]c2-c2ccc(OC)c(O)c2)c1 [C118]
concentration at 30 s ([1]; SD, intravenous, rats, i.v. C118P 5 mg/kg, n = 6): 1.58 ± 0.318 µg/mL
concentration at 30 s ([1]; SD, intravenous, rats, i.v. C118P 20 mg/kg, n = 6): 7.72 ± 2.01 µg/mL
concentration at 30 s ([1]; SD, intravenous, rats, i.v. C118P 50 mg/kg, n = 6): 20.6 µg/mL
AUC(0-inf) [1, 5]: 741 ± 63.2 ng·h/mL
half-life [1, 5]: 31.2 ± 6 min
AUC(0-inf) [1, 6]: 3750 ± 592 ng·h/mL
half-life [1, 6]: 36 ± 3.6 min
AUC(0-inf) [1, 7]: 9720 ± 1300 ng·h/mL
half-life [1, 7]: 149 ± 75.6 min
clearance ([1]; Sprague-Dawley, in vivo, compared with extrapolated CLH, read-out: Observed CL): 62.9 mL/min/kg
concentration at 30 s ([1]; Sprague-Dawley, intravenous, rats, i.v. C118P 10 mg/kg, n = 6): 3.72 ± 0.974 µg/mL
AUC(0-inf) [1, 8]: 1600 ± 193 ng·h/mL
half-life [1, 8]: 33 ± 7.8 min
CLint, in vitro ([2]; mice liver microsomes): 44.7 μL·min^−1·mg^−1 Protein
CLint ([2]; mice, scaled from CLint, in vitro): 115.3 mL/min/kg
half-life ([2]; mouse, mice liver microsomes, 1.0 mg protein/mL, C118 disappearance): 15.5 min
concentration at 2 min ([3]; BALB/cA nude, mouse, intravenous, nude mice, plasma, i.v. C118P 75 mg/kg, n = 4): 42.5 µg/mL
concentration at 2 min ([3]; BALB/cA nude, mouse, intravenous, nude mice, tumor, i.v. C118P 75 mg/kg, n = 4): 13800 ng/g
half-life ([3]; BALB/cA nude, mouse, iv, nude mice, plasma, i.v. C118P 75 mg/kg, n = 4): 58.2 ± 6 min
AUC(0-inf) ([3]; BALB/cA nude, mouse, iv, nude mice, plasma, i.v. C118P 75 mg/kg, n = 4, read-out: AUC0-inf): 13400 ng·h/mL
half-life ([3]; BALB/cA nude, mouse, iv, nude mice, tumor, i.v. C118P 75 mg/kg, n = 4): 222 ± 88.8 min
clearance ([3]; BALB/cA nude, mouse, plasma, iv, 75 mg/kg, mice, in vivo, compared with extrapolated CLH, read-out: Observed CL): 88.8 mL/min/kg
AUC(0-inf) [3, 9]: 73,027.8 ± 24,951.2 ng × h/g
fraction unbound at 1 h, 200 ng/mL ([4]; pooled plasma, C118 200 ng/mL): 0.058 ± 0.002
fraction unbound at 1 h, 2000 ng/mL ([4]; pooled plasma, C118 2000 ng/mL): 0.062 ± 0.004
fraction unbound at 1 h, 20000 ng/mL ([4]; pooled plasma, C118 20,000 ng/mL): 0.054 ± 0.004

COc1cc(OC)cc(-c2nc[nH]c2-c2ccc(OC)c(OP(=O)([O-])[O-])c2)c1.[Na+].[Na+] [C118P]
AUC(0-inf) [1, 10]: 5740 ± 766 ng·h/mL
half-life [1, 10]: 14.4 ± 3 min
clearance ([1]; SD, in vivo, rats, i.v. C118P 5 mg/kg, n = 6, read-out: CL (converted)): 14.7 mL/min/kg
clearance ([1]; SD, in vivo, rats, i.v. C118P 10 mg/kg, n = 6, read-out: CL (converted)): 16.4 mL/min/kg
AUC(0-inf) [1, 11]: 18700 ng·h/mL
half-life [1, 11]: 22.8 ± 6 min
clearance ([1]; SD, in vivo, rats, i.v. C118P 20 mg/kg, n = 6, read-out: CL (converted)): 18.5 mL/min/kg
AUC(0-inf) [1, 12]: 38900 ng·h/mL
half-life [1, 12]: 48 ± 34.2 min
clearance ([1]; SD, in vivo, rats, i.v. C118P 50 mg/kg, n = 6, read-out: CL (converted)): 22.3 mL/min/kg
concentration at 30 s [1, 10]: 75.6 µg/mL
concentration at 30 s [1, 11]: 219 µg/mL
concentration at 30 s [1, 12]: 373 µg/mL
AUC(0-inf) [1, 13]: 10400 ng·h/mL
half-life [1, 13]: 12.6 ± 3 min
concentration at 30 s [1, 13]: 134 µg/mL
V ([1]; rats, i.v. C118P 5 mg/kg, n = 6): 0.3025 ± 0.0611 L/kg
V ([1]; rats, i.v. C118P 10 mg/kg, n = 6): 0.2994 ± 0.0676 L/kg
V ([1]; rats, i.v. C118P 20 mg/kg, n = 6): 0.5826 ± 0.1142 L/kg
V ([1]; rats, i.v. C118P 50 mg/kg, n = 6): 1.5022 ± 1.0658 L/kg
stability in liver microsomes ([2]; mice liver microsomes (Figure S1)): quite stable
half-life ([3]; BALB/cA nude, mouse, in vivo, iv, 75 mg/kg, nude mice, plasma, i.v. C118P 75 mg/kg, n = 4): 118 ± 64.2 min
half-life ([3]; BALB/cA nude, mouse, in vivo, iv, 75 mg/kg, nude mice, tumor, i.v. C118P 75 mg/kg, n = 4): 69.6 ± 45.6 min
AUC(0-inf) ([3]; BALB/cA nude, mouse, in vivo, iv, nude mice, plasma, i.v. C118P 75 mg/kg, n = 4, read-out: AUC0-inf): 13500 ng·h/mL
clearance ([3]; BALB/cA nude, mouse, in vivo, iv, nude mice, plasma, i.v. C118P 75 mg/kg, n = 4, read-out: CL (converted)): 96.9 mL/min/kg
concentration at 2 min ([3]; BALB/cA nude, mouse, in vivo, nude mice, plasma, i.v. C118P 75 mg/kg, n = 4): 106 µg/mL
concentration at 2 min ([3]; BALB/cA nude, mouse, in vivo, nude mice, tumor, i.v. C118P 75 mg/kg, n = 4): 292 ± 80.2 ng/g
V ([3]; nude mice, plasma, i.v. C118P 75 mg/kg, n = 4): 15,404.8 ± 7499.6 mL/kg
AUC(0-inf) [3, 9]: 217.7 ± 9.3 ng·h/g
fraction unbound at 1 h, 400 ng/mL ([4]; C118P 400 ng/mL): 0.019 ± 0.001
fraction unbound at 1 h, 4000 ng/mL ([4]; C118P 4000 ng/mL): 0.021 ± 0.001
fraction unbound at 1 h, 40000 ng/mL ([4]; C118P 40,000 ng/mL): 0.027 ± 0.002
fraction unbound at 1 h, 400000 ng/mL ([4]; C118P 400,000 ng/mL): 0.086 ± 0.003
